One may read the IC50 as the concentration that gives 50% inhibition.

In assay [1] the test system is CT26 colon carcinoma cells. Briefly: nuclear apoptosis by Hoechst-33342 dye staining in chemoresistant CT26 clone. The class given is cell-based, Murine. The settings on record: resistant CT26 clone, 48 hours. On the procedure: (§1) Murine CT26 and D2F2 carcinoma cells were cultured in the presence of either 1% DMSO, etoposide, 5-fluorouracil, doxorubicin, vinblastine or paclitaxel (Sigma, St. Louis, Mo.) at the concentrations indicated. After 48 hours, apoptotic nuclei were counted after incubation with the DNA-specific Hoechst-33342 dye (2 μM; Molecular Probes, Eugene, Oreg.).
(§2) Two clones of CT26 colon cancer and D2F2 breast cancer cells, respectively, have acquired chemoresistance (see FIG. 1, Panel C).

Assay [2] deals with parent CT26 cell line (ATCC #CLR-2326). Briefly: IC50 in original parent CT26 cell line. The class given is cell-based, Murine. As to conditions: Mus musculus.
Excerpt: as §2

The test system of assay [3] is D2F2 breast carcinoma cells. Nature of the assay: nuclear apoptosis by Hoechst-33342 dye staining in resistant D2F2 cells. Type of assay: cell-based, Murine. On the procedure: as §1, §2
In assay [4] the test system is D2F2 breast carcinoma cells. Nature of the assay: prophylactic setting, orthotopic D2F2 tumor growth, with or without doxorubicin. Type of assay: in vivo, BALB/c mice. Here is the method: Oral immunization, tumor cell challenge and treatment with doxorubicin. […] Med., 2002, 8: 1369-1375. Animals were challenged about 10 days later by subcutaneous (s.c.) injection of about 3×10^4 CT26 colon carcinoma cells in the left front flank or by orthotopic (o.t.) injection of about 3×10^5 D2F2 breast cancer cells in the left, second lowest mammary fat pad.
Tumor volume (in mm^3) was calculated by measuring the tumor in 2 dimensions (i.e., length and width, in millimeters) and calculating the volume as one half the length times the square of the width. In the therapeutic setting, the initial tumor cell inoculation was by intravenous (i.v.) injection of about 1×10^5 CT26 colon carcinoma cells followed about 3 and 10 days later by oral vaccinations with control vaccine or active DNA compositions. After about 18 days, the lungs were weighed (normal lung weight was about 0.2 g) and pulmonary tumor metastases were examined and scored by visual evaluation assessing the percentage of lung surface covered by fused metastases as follows: score of 0 for 0% coverage, score of 1 for less than about 20% coverage, score of 2 for about 20-50% coverage, score of 3 for greater than about 50% of lung surface covered. Treatment with doxorubicin was performed in groups of mice with about 10 mg/kg doxorubicin (Sigma) administered i.v., 5, 10 and 15 days after tumor challenge. […]

Take `O=c1[nH]cc(F)c(=O)[nH]1` [5-FU, 5-fluorouracil]: the “nuclear apoptosis (Hoechst-33342 dye staining)” value (shortened to “nuclear apoptosis”) in assay [1] (concentration as high as 100 μM) is on record as “not able to induce nuclear apoptosis”. Also, the IC50 in assay [2] was roughly 1850 nM.
In the case of `COc1cccc2c1C(=O)c1c(O)c3c(c(O)c1C2=O)C[C@@](O)(C(=O)CO)C[C@@H]3O[C@H]1C[C@H](N)[C@H](O)[C@H](C)O1` [doxorubicin], the “sensitivity of D2F2 cells” value in assay [3] (FIG. 1, Panel C) is listed as “partially sensitive”. In assay [3] (resistant D2F2 cells, 48 hours, highest concentration of 1 μM), the “nuclear apoptosis” value is listed as “able to induce nuclear apoptosis”. Moreover, the tumor growth entry in assay [4] (orthotopic D2F2, doxorubicin or PBS 5, 10 and 15 days after challenge) is listed as “only able to suppress, but not eradicate tumor growth”. For the same compound, the “complete rejection of tumors” value in assay [4] (single agent alone) was “not observed”.
With `CC[C@]1(O)C[C@@H]2CN(CCc3c([nH]c4ccccc34)[C@@](C(=O)OC)(c3cc4c(cc3OC)N(C)[C@H]3[C@@](O)(C(=O)OC)[C@H](OC(C)=O)[C@]5(CC)C=CCN6CC[C@]43[C@@H]65)C2)C1` [vinblastine], in assay [1] (only at 5 μM), the “nuclear apoptosis” value was “slight apoptotic effect”.
